Measured values taken from patent US20140105891A1, “TREATMENT OF CANCER” (CERULEAN PHARMA INC., priority 2012, published 2014).

Legend:
[1] = tested on: H1299 human NSCLC xenograft; test: H1299 NSCLC xenograft tumor growth delay; conditions: for tumor-free survival (TFS): CRLX101 10 mg/kg qwk×3, marketed drugs on optimal preclinical regimens; for median tumor volume (MTV) of survivors: D74 survivors, Gemcitabine 120 mg/kg
Description: H1299 cells were obtained from the American Type Culture Collection (ATCC), and the tumor line was maintained by serial engraftment in nude mice.
Body weight was measured daily on Days 1-5, then twice weekly until the completion of the study. Tumor volume was measured twice weekly and each animal was euthanized when the calculated tumor volume reached the 2000 mm^3 endpoint, or on day-88 post implantation, whichever came first.

HIF-2α = HIF-2α levels in A2780 xenograft after CRLX101 and Bevacizumab (Western blot); format: in vivo, mouse; conditions: CRLX101 5 mg/kg i.v. q7d×2, Bevacizumab 5 mg/kg i.p. Day 1, 4, 8, tumors Day 11
Description: (§1) Tumor samples were collected on Day 11, 72 hours after the last treatment (Day 8 for both drugs) and analyzed for HIF-1α and HIF-2α levels using Western blot.

[2] = tested on: A2780 Ovarian Xenograft Tumors; test: A2780 ovarian xenograft tumor growth / response rate; format: in vivo, mouse; conditions: A2780, Day 42; CRLX101 5 mg/kg IV q7d×3; Bevacizumab 5 mg/kg i.p. biweekly×3; combination at same doses
HIF-1α = HIF-1α levels in A2780 xenograft after CRLX101 and Bevacizumab (Western blot); format: in vivo, mouse; conditions: CRLX101 5 mg/kg i.v. q7d×2, Bevacizumab 5 mg/kg i.p. Day 1, 4, 8, tumors Day 11
Description: as §1

Compound: Nc1ccn([C@@H]2O[C@H](CO)[C@@H](O)C2(F)F)c(=O)n1 [Gemcitabine]
- tumor-free survival (TFS) ([1]; 74 days post first treatment): 50%
- median tumor volume (MTV) of survivors ([1]; Docetaxel 30 mg/kg): 0 mm3

Compound: CC(=O)O[C@@]12CO[C@@H]1C[C@H](O)[C@@]1(C)C(=O)[C@H](O)C3=C(C)[C@@H](OC(=O)[C@H](O)[C@@H](NC(=O)OC(C)(C)C)c4ccccc4)C[C@@](O)([C@@H](OC(=O)c4ccccc4)[C@H]21)C3(C)C [Docetaxel]
- survival ([1]; 74 days post first treatment, docetaxel 30 mg/kg qwk×3): 20%
- median tumor volume (MTV) of survivors ([1]; Docetaxel 30 mg/kg): 302 mm3
- group mean body weight loss ([1]; Docetaxel 30 mg/kg, on D21): 9.3%

Compound: Bevacizumab: antibody against VEGF
- HIF-2α % of Control (HIF-2α): 146 % of Control
- Partial Response (# of mice) [2]: 0 of 10
- HIF-1α % of Control (HIF-1α): 157 % of Control

Compound: CC[C@@]1(O)C(=O)OCc2c1cc1n(c2=O)Cc2cc3c(CN(C)C)c(O)ccc3nc2-1 [Topotecan]
- tumor-free survival (TFS) ([1]; 74 days post first treatment): 10%
